Where “and” joins values, the source holds several entries; their conditions need not be identical. Identical values can stand only once.
Experiments:
rTcMVK = target: T1, rTcMVK (Trypanosoma cruzi, UniProt A0A165UDJ0); experiment: coupled pyruvate kinase / lactate dehydrogenase assay, NADH at […] nm; type: biochemical; settings: MgCl2 […], glycine pH […] °C, dimer
T1 construct: gene MVK; N-terminal His6 tag (pET-28a, BamHI/HindIII), E. coli BL21; native 34 kDa; active dimer fraction from gel filtration
T1 sequence (A0A165UDJ0 43-364 limits assumed): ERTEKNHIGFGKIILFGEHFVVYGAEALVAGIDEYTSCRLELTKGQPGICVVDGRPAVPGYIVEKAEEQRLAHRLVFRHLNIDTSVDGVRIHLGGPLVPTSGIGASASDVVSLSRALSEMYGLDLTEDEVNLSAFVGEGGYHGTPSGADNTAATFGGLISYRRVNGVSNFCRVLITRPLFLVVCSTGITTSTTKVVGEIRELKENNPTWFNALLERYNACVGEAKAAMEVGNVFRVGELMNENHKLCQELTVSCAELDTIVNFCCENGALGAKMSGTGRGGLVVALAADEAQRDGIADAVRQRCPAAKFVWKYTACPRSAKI

[1] = target: recombinant Trypanosoma cruzi mevalonate kinase (rTcMVK) (Trypanosoma cruzi (G strain)); experiment: SEC; Superdex 200 High Load 16/60 prep-grade, glycine buffer pH 9.0 with 0.15 M NaCl, after Ni-NTA; separates the oligomerization states of rTcMVK

Nc1ncnc2c1ncn2[C@@H]1O[C@H](COP(=O)(O)OP(=O)(O)OP(=O)(O)O)[C@@H](O)[C@H]1O [ATP]
coupled pyruvate kinase / lactate dehydrogenase assay, NADH at 340 nm (rTcMVK; mevalonate […], blank without ATP): Blank assays were performed in the absence of ATP.

CC(O)(CCO)CC(=O)O (racemic) [(RS)-mevalonic acid]
coupled pyruvate kinase / lactate dehydrogenase assay, NADH at 340 nm (rTcMVK; ATP […], racemic mevalonate […] from hydrolysed lactone): In vitro assays using synthetic mevalonic acid confirmed enzymatic activity of recombinant TcMVK

recombinant Trypanosoma cruzi mevalonate kinase (rTcMVK) (enzyme)
stoichiometry N [1]: 4 and 2
